Test results taken from patent US20120003661A1, “METHODS AND DEVICES FOR THE SELECTIVE DETECTION OF MICROORGANISMS” (C3 JIAN, INC., priority 2010, published 2012).
“Also recorded” adds a separate entry of the source. Read-outs that look alike come from different tables or passages of the source.

System: bacteria, fungi, and/or yeasts
Assay type: binding
[1] = microorganism(s) the targeting peptide binds, as listed in Table 2
[2] = microorganism(s) listed as target(s) of the targeting peptide, wrapped target lists given cell by cell
[3] = microorganism(s) that the targeting peptide binds, as listed in Table 2

| Substance | Target(s) [1] | Target(s) [2] | further results |
| --- | --- | --- | --- |
| 1T-150 (YINRRLKKAFSDADIKEAPAEFYEELRRVQYV) | A. naeslundii, F. nucleatum, P. gingivalis,; also recorded: T. denticola, S. gordonii,; also recorded: S. mitis, S. mutans, S. oralis,; also recorded: S. salivarious, S. sanguinis | – | – |
| Rv2561 (QHQCPGMRPAPADAPEVPHAARADQKRPSLRL) | – | C. albicans | – |
| PF-005 (MESIFKIKLMNGICRSENMNMKKKNKGEKI) | – | S. epidermidis, E. coli, MRSA, S. pneumoniae,; also recorded: E. faecalis | – |
| 1T-260 (NILYFIHDENQWEPQKAEIFRGSIKHCAWLSS) | – | A. naeslundii, P. gingivalis, S. epidermidis,; also recorded: S. gordonii, S. mitis,; also recorded: S. mutans, S. oralis, S. sanguinis | – |
| Rv2660c (RSPDFVDETAGQSWCAILGLNQFH) | – | C. albicans | – |
| PF-051 (RFFNFEIKKSTKVDYVFAHVDLSDV) | – | C. albicans hyphae; also recorded: S. epidermidis, M. luteus, P. aeruginosa,; also recorded: C. albicans, MRSA,; also recorded: S. pneumoniae, E. faecalis | – |
| 1T-38 (VMFVLTRGRSPRPMIPAY) | S. mutans, S. aereus, S. epidermidis,; also recorded: C. jeikeium, C. xerosis,; also recorded: C. striatum, P. aeruginosa | – | – |
| 1T-257 (IILAKAADLAEIERIISEDPFKINEIANYDIIEFCPTKSSKAFEKVLK) | – | A. naeslundii, F. nucleatum, P. gingivalis,; also recorded: S. epidermidis, S. gordonii,; also recorded: S. mitis, S. mutans, S. oralis,; also recorded: S. salivarious, S. sanguinis | – |
| PF-164 (EEVSRALAGIGLGLGCRIG) | – | S. epidermidis, M. luteus, E. coli,; also recorded: C. jeikeium | – |
| PF-C003 (FCSVDHDVITIAADHVKQGAEA) | – | – | Target(s) [3]: A. naeslundii, P. gingivalis, S. mutans |
| PF-024 (DLRKAK) | – | C. albicans hyphae; also recorded: M. luteus, C. albicans, MRSA, E. faecalis,; also recorded: C. jeikeium | – |
| 1T-287 (KGYPLPFQYRLNNH) | – | P. gingivalis, T. denticola, S. gordonii,; also recorded: S. mitis, S. mutans, S. oralis,; also recorded: S. salivarious, S. sanguinis | – |
| 1T-59 (AVGNNLGKDNDSGHRGKKHRKHKHR) | S. aureus, S. epidermidis, P. aeruginosa | – | – |
| 1T-253 (KTKESLTQQEKKFLKDYDRKSLHHFRDILTYCFILDKLTNK) | – | A. naeslundii, F. nucleatum, P. gingivalis,; also recorded: S. epidermidis, S. gordonii,; also recorded: S. mitis, S. mutans, S. oralis,; also recorded: S. salivarious, S. sanguinis | – |
| PF-145 (GIVLTGRAGLVSGACSMALGVGLG) | – | S. epidermidis, M. luteus, P. mirabilis,; also recorded: E. coli, P. aeruginosa,; also recorded: C. albicans, MRSA, S. pneumoniae,; also recorded: E. faecalis, C. jeikeium,; also recorded: C. jejuni, M. smegmatis | – |
| PF-799 (YTHYNTALSYALLLTNKSSVP) | – | – | Target(s) [3]: S. mutans |
| PF-039 (MLEEKNKSL) | – | P. mirabilis, C. jeikeium | – |
| PF-C058 (FETGFGDGYYMSLWGLNEKDEVCKVVIPFINPELID) | – | – | Target(s) [3]: A. naeslundii, F. nucleatum, P. gingivalis,; also recorded: S. mutans |
| PF-129 (MKLLARDPWVCAWNDIW) | – | S. epidermidis, MRSA, E. faecalis,; also recorded: C. jeikeium, C. jejuni | – |
| PF-C065 (DEERYSDSYFLKEKVFYLILALFLILFHQKYLYFLEIITI) | – | – | Target(s) [3]: A. naeslundii, F. nucleatum, P. gingivalis,; also recorded: S. mutans |
| 1T-263 (FIAVSFTGNPATFKLVIGCKADN) | – | A. naeslundii, F. nucleatum, P. gingivalis,; also recorded: S. epidermidis, S. gordonii,; also recorded: S. mitis, S. oralis, S. salivarious,; also recorded: S. sanguinis | – |
| PF-044 (KLKKYIHKPD) | – | S. epidermidis, M. luteus, MRSA,; also recorded: C. jeikeium | – |
| 1T-195 (AASGFTYCASNGVWHPY) | S. mutans | – | – |
| PF-054 (VSISRFIGGGHVFNGNNKRNL) | – | S. epidermidis, E. coli | – |
| 1T-45 (WTKPSFTDLRLGFEVTLYFANR) | S. aureus, S. epidermidis, C. striatum,; also recorded: P. aeruginosa | – | – |

| Substance | Target(s) [1] | Target(s) [2] | further results |
| --- | --- | --- | --- |
| PF-X (TFFRLFNRSFTQALGK) | – | – | Target(s) [3]: S. mutans |
| Rv1535 (DPLVDGAARLLSIPLRHLYAALWRVGLLEVQA) | – | C. albicans | – |
| 1T-259 (EKLKKILLKLAVCGKAWYTL) | – | F. nucleatum, P. gingivalis, T. denticola,; also recorded: S. mitis, S. mutans, S. oralis,; also recorded: S. sanguinis | – |
| 1T-127 (YDPVPKRKNKNSEGKREE) | A. naeslundii, F. nucleatum, P. gingivalis,; also recorded: T. denticola, S. gordonii,; also recorded: S. mitis, S. mutans, S. oralis,; also recorded: S. salivarious, S. sanguinis | – | – |
| 1T-163 (MENILIYIPMVLSPFGSGILLFLGKDRRYML) | A. naeslundii, F. nucleatum, P. gingivalis,; also recorded: S. epidermidis, S. gordonii,; also recorded: S. mitis, S. mutans, S. oralis,; also recorded: S. salivarious, S. sanguinis | – | – |
| PF-061 (GYNSYKAVQDVKTHSEEQRVTAKK) | – | S. epidermidis, S. pneumoniae | – |
| PF-007 (MGIIAGIIKVIKSLIEQFTGK) | – | S. epidermidis, M. luteus, E. coli,; also recorded: P. aeruginosa, C. albicans,; also recorded: MRSA, S. pneumoniae, E. faecalis,; also recorded: C. jeikeium | – |
| 1T-18 (YSKTLHFAD) | S. aureus, S. epidermidis, C. striatum,; also recorded: P. aeruginosa | – | – |
| 1T-14 (ALAGLAGLISGK) | S. mutans, S. aureus, S. epidermidis,; also recorded: C. xerosis | yeast and hyphal forms | – |
| Rv3760 (GLITVFAGTARILQLRRAAKKTHAAALR) | – | C. albicans | – |
| 1T-99 (MKAWLGQ) | S. gordonii, S. mitis, S. mutans,; also recorded: S. oralis, S. sanguinis | – | – |
| PF-048 (LYFAFKKYQERVNQAPNIEY) | – | S. epidermidis, M. luteus, E. coli,; also recorded: MRSA, C. jeikeium, C. jejuni | – |
| PF-V (KFINGVLSQFVLERK) | – | – | Target(s) [3]: S. mutans |
| 1T-167 (SRMSEHSPAGLVFEVGPMDKGSFIILDSYHPTVKK) | A. naeslundii, F. nucleatum, P. gingivalis,; also recorded: S. epidermidis, S. gordonii,; also recorded: S. mitis, S. mutans, S. oralis,; also recorded: S. salivarious, S. sanguinis | – | – |
| PF-617 (PMNAAEPE) | – | yeast and hyphal forms | – |
| PF-165 (GPVSVVASLRRGTTVQRHSQNNHNKGKP) | – | MRSA, C. jejuni | – |
| PF-798 (ALHSKGIKVMADWVPDQMYA) | – | – | Target(s) [3]: S. mutans |
| 1T-288 (RWVGGEPSADIYLSAKDTKT) | – | F. nucleatum, S. gordonii, S. salivarious,; also recorded: S. sanguinis | – |
| 1T-171 (SVRAVKPIDKTVARHFPGDFIVN) | A. naeslundii, F. nucleatum, P. gingivalis,; also recorded: S. epidermidis, S. gordonii,; also recorded: S. mitis, S. mutans, S. oralis,; also recorded: S. salivarious, S. sanguinis | – | – |
| 1T-132 (YSKKLFEYFYFIIFILIRYLIFYKIIQNKNYYINNIAYN) | A. naeslundii, F. nucleatum, P. gingivalis,; also recorded: S. epidermidis, S. gordonii,; also recorded: S. mitis, S. mutans, S. oralis,; also recorded: S. salivarious, S. sanguinis | – | – |
| PF-543 | – | C. albicans hyphae | – |
| PF-065 (LEKNTRDNYFIHAIDRIYINTSKGLFPESELVAWG) | – | M. luteus, E. coli, P. aeruginosa,; also recorded: C. albicans, MRSA, S. pneumoniae,; also recorded: C. jeikeium, C. jejuni | – |
| PF-045 (LDINDYRSTY) | – | S. epidermidis, E. coli, E. faecalis,; also recorded: C. jejuni | – |
| 1T-12 (FGNIFKGLKDVIETIVKWTAAK) | C. xerosis, C. striatum, S. epidermidis,; also recorded: S. mutans | – | – |
| PF-800 (WYYFDNNGYM) | – | – | Target(s) [3]: S. mutans |

| Substance | Target(s) [1] | Target(s) [2] | further results |
| --- | --- | --- | --- |
| PF-C291 (HPFLTGTGCPLFLIFRLFFVKAYFSFTVF) | – | – | Target(s) [3]: A. naeslundii, F. nucleatum, P. gingivalis,; also recorded: S. mutans |
| 1T-114 (RQAPGPGLVTITAACSAPGSRSR) | A. naeslundii, P. gingivalis, S. epidermidis,; also recorded: S. gordonii, S. mitis,; also recorded: S. mutans, S. oralis, S. sanguinis | – | – |
| PF-159 (TMAFVEKAQLRVPVGDDLPV) | – | S. epidermidis | – |
| 1T-54 (RWVSCNPSWRIQ) | S. epidermidis, C. xerosis, C. striatum,; also recorded: P. aeruginosa | – | – |
| 1T-58 (CDDLHALERAGKLDALLSA) | P. aeruginosa | – | – |
| 1T-190 (IQIIVNAFVEKDKTGAVIEVLYASNNHEKVKAKYEELVAIS) | A. naeslundii, F. nucleatum, P. gingivalis,; also recorded: S. epidermidis, S. gordonii,; also recorded: S. mitis, S. mutans, S. oralis,; also recorded: S. salivarious, S. sanguinis | – | – |
| PF-074 (RDIHPIYFMTKD) | – | S. epidermidis, M. luteus, MRSA | – |
| 1T-52 (DEYPAKLPLSDKGATEPRRH) | S. aureus, C. xerosis, P. aeruginosa | – | – |
| PF-C071 (QVIVKIL) | – | – | Target(s) [3]: A. naeslundii, F. nucleatum, S. mutans |
| 1T-142 (FTQGIKRIVLKRLKED) | A. naeslundii, F. nucleatum, P. gingivalis,; also recorded: T. denticola, S. gordonii,; also recorded: S. mitis, S. mutans, S. oralis,; also recorded: S. salivarious, S. sanguinis | – | – |
| PF-C080 (INIPGLF) | – | – | Target(s) [3]: A. naeslundii, F. nucleatum, S. mutans |
| 1T-24 (EEAEEKLAEVSQAVKRLVR) | P. aeruginosa | – | – |
| PF-C088 (DIANNILNSVSERLIIA) | – | – | Target(s) [3]: A. naeslundii, F. nucleatum, P. gingivalis,; also recorded: S. mutans, T. denticola |
| TT-310 (TKLKKNNKLLSAKKENTLHTKDK) | – | F. nucleatum, | – |
| PF-C259 (AEIQPHCLSVL) | – | – | Target(s) [3]: F. nucleatum, S. mutans |
| PF-C131 (QWIVAKREIRMHIYCHISVIHVIIFFG) | – | – | Target(s) [3]: A. naeslundii, F. nucleatum, P. gingivalis,; also recorded: S. mutans |
| PF-062 (MKKKRINNDILGRMIYSSSIDKRNLYNLKYYE) | – | S. epidermidis, M. luteus, E. coli,; also recorded: P. aeruginosa, MRSA, S. pneumoniae,; also recorded: E. faecalis, C. jeikeium | – |
| PF-017 (ESIIE) | – | E. coli | – |
| PF-C142 (DFPPLSFFRRRFHAYTAPIDNFFGANPF) | – | – | Target(s) [3]: A. naeslundii, F. nucleatum, P. gingivalis,; also recorded: S. mutans, T. denticola |
| 1T-104 (RAVAAHLQGRHHGHQVRRQRHGQR) | S. mitis | – | – |
| 1T-124 (LFDERNKIA) | S. mitis, S. mutans, S. oralis | – | – |
| PF-026 (SIHFIN) | – | S. epidermidis, M. luteus, P. mirabilis,; also recorded: C. albicans, MRSA, E. faecalis,; also recorded: C. jeikeium | – |
| PF-S029 (TSDTQSQSPWLFDNADIVNIYPVQLMHSSDND) | – | – | Target(s) [3]: M. luteus, P. mirabilis, E. coli, C. albicans,; also recorded: C. jeikeium, C. jejuni |
| TT-305 (ARNALNMRDVPVDAAIIGIIDGMDEE) | – | F. nucleatum | – |
| PF-058 (FADQSQDNA) | – | S. epidermidis, M. luteus, E. coli,; also recorded: C. albicans, MRSA, C. jeikeium,; also recorded: C. jejuni | – |
